This is an account of results in BindingDB's records for doi:10.1124/jpet.103.049254 (Schering-Plough Research Institute, 2003).

Targets include Nischarin (Rattus norvegicus, UniProt Q4G017); Histamine H2 receptor (Cavia porcellus, UniProt P47747); Hrh3 protein (Rattus norvegicus, UniProt Q5PPG3); Histamine H1 receptor (Cavia porcellus, UniProt P31389).

Sequence of Histamine H2 receptor (P47747 whole entry): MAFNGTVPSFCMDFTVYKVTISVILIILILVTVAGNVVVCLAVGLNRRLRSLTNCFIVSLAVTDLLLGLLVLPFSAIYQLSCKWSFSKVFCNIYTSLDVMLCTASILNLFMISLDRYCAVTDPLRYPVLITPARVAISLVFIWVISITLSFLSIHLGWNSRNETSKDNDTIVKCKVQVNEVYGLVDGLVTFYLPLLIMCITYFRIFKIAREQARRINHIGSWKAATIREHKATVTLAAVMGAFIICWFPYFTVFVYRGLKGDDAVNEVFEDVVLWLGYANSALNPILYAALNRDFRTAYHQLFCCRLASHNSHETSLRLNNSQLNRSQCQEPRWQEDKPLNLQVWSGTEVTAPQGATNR
Sequence of Hrh3 protein (Q5PPG3 whole entry): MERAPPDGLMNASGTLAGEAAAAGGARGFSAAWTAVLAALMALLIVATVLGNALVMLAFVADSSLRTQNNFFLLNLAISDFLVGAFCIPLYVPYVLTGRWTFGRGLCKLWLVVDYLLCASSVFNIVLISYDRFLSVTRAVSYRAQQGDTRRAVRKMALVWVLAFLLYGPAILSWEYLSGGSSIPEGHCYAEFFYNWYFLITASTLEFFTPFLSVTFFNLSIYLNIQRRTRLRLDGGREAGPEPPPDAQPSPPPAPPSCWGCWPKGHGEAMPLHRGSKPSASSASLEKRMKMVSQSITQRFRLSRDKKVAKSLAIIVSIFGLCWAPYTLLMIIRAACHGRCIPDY
Sequence of Nischarin (Q4G017 whole entry): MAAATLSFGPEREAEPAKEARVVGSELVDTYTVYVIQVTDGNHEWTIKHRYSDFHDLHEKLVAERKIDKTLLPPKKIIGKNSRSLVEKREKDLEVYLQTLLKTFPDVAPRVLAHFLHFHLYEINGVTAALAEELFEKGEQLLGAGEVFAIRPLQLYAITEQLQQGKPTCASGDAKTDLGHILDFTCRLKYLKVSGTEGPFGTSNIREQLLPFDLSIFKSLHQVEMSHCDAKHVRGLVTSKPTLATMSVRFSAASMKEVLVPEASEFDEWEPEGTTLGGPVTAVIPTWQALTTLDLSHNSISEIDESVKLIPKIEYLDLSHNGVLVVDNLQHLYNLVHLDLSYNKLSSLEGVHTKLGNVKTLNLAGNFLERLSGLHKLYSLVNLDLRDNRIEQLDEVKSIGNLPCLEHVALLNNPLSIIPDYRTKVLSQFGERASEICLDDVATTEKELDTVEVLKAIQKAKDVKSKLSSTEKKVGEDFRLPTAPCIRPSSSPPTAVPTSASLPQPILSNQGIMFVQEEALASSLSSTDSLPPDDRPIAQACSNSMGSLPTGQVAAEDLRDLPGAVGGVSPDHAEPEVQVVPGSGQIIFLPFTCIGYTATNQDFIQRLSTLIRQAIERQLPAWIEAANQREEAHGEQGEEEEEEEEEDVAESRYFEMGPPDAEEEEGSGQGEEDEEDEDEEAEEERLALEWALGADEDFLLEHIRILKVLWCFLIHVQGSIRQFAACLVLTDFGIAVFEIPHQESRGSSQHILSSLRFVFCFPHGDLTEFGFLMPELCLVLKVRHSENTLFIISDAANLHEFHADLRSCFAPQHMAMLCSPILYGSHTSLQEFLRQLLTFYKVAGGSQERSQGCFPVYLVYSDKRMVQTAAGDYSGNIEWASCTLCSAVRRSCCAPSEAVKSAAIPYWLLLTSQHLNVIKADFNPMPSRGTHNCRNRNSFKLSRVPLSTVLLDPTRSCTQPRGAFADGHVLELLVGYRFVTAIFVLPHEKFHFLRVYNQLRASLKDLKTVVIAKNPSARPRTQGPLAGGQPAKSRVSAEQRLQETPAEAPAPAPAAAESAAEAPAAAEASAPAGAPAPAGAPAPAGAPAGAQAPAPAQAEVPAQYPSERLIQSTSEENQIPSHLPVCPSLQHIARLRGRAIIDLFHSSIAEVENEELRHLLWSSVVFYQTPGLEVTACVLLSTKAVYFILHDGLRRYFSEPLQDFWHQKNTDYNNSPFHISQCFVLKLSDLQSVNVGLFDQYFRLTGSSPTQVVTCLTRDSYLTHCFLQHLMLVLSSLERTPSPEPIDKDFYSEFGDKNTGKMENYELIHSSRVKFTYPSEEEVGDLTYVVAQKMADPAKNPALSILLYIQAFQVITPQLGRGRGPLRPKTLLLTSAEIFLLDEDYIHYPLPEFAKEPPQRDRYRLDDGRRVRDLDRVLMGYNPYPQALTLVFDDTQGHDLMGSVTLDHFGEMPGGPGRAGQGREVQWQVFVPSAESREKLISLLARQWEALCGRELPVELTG
Sequence of Histamine H1 receptor (P31389 whole entry): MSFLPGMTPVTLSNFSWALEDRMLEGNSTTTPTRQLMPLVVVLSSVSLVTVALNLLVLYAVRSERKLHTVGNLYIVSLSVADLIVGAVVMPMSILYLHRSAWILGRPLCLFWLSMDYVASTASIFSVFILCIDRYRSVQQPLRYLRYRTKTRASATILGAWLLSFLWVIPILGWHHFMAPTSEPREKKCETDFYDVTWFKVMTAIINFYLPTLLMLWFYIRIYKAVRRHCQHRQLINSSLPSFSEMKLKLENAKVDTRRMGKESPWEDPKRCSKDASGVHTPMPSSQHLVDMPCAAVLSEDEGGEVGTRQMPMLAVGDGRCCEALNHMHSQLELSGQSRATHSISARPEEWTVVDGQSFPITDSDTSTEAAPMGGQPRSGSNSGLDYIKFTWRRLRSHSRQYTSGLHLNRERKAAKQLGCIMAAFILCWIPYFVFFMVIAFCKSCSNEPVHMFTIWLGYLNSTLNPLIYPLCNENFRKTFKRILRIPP

As to `O=C(NCc1ccc(Cc2c[nH]cn2)cc1)Nc1cc(Cl)cc(Cl)c1`, the inhibition constant Ki at Nischarin turned out to be 155 nM; on Histamine H2 receptor, 1000 nM; at Hrh3 protein it was 1.9 nM; at Histamine H1 receptor, 1000 nM.

A word on the Ki: it is the equilibrium dissociation constant of an inhibitor or competing ligand from its target. Lower therefore signals tighter binding.
